For one data set, the target named is Human RPA (Homo sapiens (Human), UniProt P27694). As to the kind of experiment: EMSA of inhibition of RPA binding to ssDNA. To be noted: 25 nM RPA, 34-base DNA, 4 parameter logistic fit, read-out: IC50 (μM) In vitro. As for the experimental part:
Small molecule inhibitors were obtained from ChemDiv and resuspended in DMSO. Compound TDLR-505 was independently synthesized and structure confirmed by mass spectrometry analysis. Human RPA was purified using an E. coli over expression system as previously described (7). EMSAs were performed in 20 μL reactions containing 25 nM RPA, 25 nM 5′[^32P]-labeled 34-base […] DNA as previously described (7). The final concentration of DMSO was 1%.
Referring now to TABLE 1, the in vitro IC50 was determined by EMSA analysis as described in FIG. 1A. The cellular IC50 value was determined by treating H460 cells with the indicated compounds and analyzing annexinV/PI staining as described in Methods. The in vitro and cellular data was analyzed using standard 4 parameter logistic-curve. The IC50 values and standard error of the fit were determined from this analysis.
Referring now to FIGS. 2C, D and E, EMSA analysis of compound TDLR-505, briefly, increasing concentrations of compound TDRL-505 were pre-incubated with RPA and DNA binding activity was assessed via EMSA using a 34-base ssDNA substrate. Referring now to FIG. 2D, the average and standard deviation of each point are presented. The data was fit to a standard 4 parameter logistic curve with an N=4.

The subject of another data set is RPA. As to the kind of experiment: Indirect immunofluorescence of RPA in H460 cells. It counts as cell-based, human. To be noted: 50 μM, 3 hours. As for the experimental part:
H460 cells were plated on chamber slides (LabTek) as described above. Cells were then treated for 3 hours with either 50 μM of compound TDLR-505 or vehicle as indicated and following treatment, cells were fixed in 4% paraformaldehyde at 25° C. for 3 minutes followed by washing in 0.2% Triton X-100 for 2 minutes at 4° C. The slides were then blocked in 15% FBS in PBS for 1 hour at 25° C. and then incubated with anti-RPA 34 primary antibody (Neomarkers) at a dilution of 1:500 in 15% FBS for 1 hour. Slides were then washed 3×10 minutes with 15% FBS and then incubated with Alexa Fluor-594 goat-anti-mouse secondary antibody (Invitrogen) at a dilution of 1:300 for 1 hour. Slides were again washed and stained with 300 nM DAPI diluted in PBS-EDTA for five minutes. […] Slides were visualized and images analyzed and quantified using ImageJ software.
These cellular effects seen following treatment with compound TDLR-505 correlate with an inability of RPA to interact with DNA which could then result in numerous possibilities including degradation or redistribution of RPA within the cell. […] Referring now to FIG. 4C, H460 cells were treated with 50 μM compound TDLR-505 or vehicle for 3 hours and analyzed for RPA expression and localization by indirect immunofluorescence using an Alexa Fluor594 secondary antibody (red). […] RPA expression was assessed via western blot analysis probing for the p34 subunit. […]

The subject of the next data set is NOD/SCID mice. To be noted: mouse, in vivo. As for the experimental part: Mice were monitored for signs of overt toxicity and bodyweights measured three times per week. Mice were sacrificed and gross necroscopy performed to assess organ weights and inspected for signs of toxicity. […] NOD/SCID mice were then implanted with 5×10^6 H460 cells in 0.2 ml of 50% Matrigel subcutaneously. Tumors were allowed to develop for 7 days and TDRL-505 was administered via oral gavage 2× per week for one week. Tumor volumes were calculated by measuring the width and the length of the tumors and using these measurements in the equation: vol.=1×w^2/2.
Referring now to Table 3. […] Oral dosing in 0.1% Tween 80/methylcellulose was also well tolerated up to 800 mg/kg.

Another data set relates to H460 NSCLC cell line. As to the kind of experiment: Crystal violet staining cell viability assay. As to conditions: Homo sapiens, NCI-H460; data not shown. The format is cell-based.
Data set [1] is described as follows: Pharmacokinetic analysis in mice. It counts as in vivo. To be noted: for AUC(0-t) / Cmax / Tmax / half-life: mouse, serum. The procedure: Pharmacokinetic analysis. TDRL-505 was administered to mice at 200 mg/kg either ip or po and blood drawn at 1, 2, 4, 8, 24 and 48 hours post treatment. Serum concentration of TDRL-505 was measured using a HPLC MS/MS protocol and PK parameters analysis using on-compartmental analysis.
Based on the in vivo anticancer activity of TRL-505 a comparison of pharmacokinetic parameters with both ip and po dosing regimens was made. Naive mice were given a single dose and as described in Table 3, blood was drawn at various time intervals and TRDL-505 concentration determined via a HPCL/MSMS protocol developed for this compound.

Data set [2] deals with peripheral blood mononuclear cells (PBMCs). The data set is described as follows: Cytotoxicity in freshly isolated PBMCs. The format is cell-based. As to conditions: non-cancerous cells, data not shown.
Another data set deals with H460 cells. As to the kind of experiment: H460 NSCLC mouse xenograft model. To be noted: oral dosing. The format is in vivo, NOD/SCID mice. The text has this: Mice that had been implanted with a human NSCLC tumor cells were subjected to a regime of oral dosing. The tumors were allowed to grow to 100 mm3 after which treatment with TDRL-505 or vehicle was commenced.
Where [3] appears, read: 200 mg/Kg PO, Methylcellulose/DMSO.

Values joined by “and” are separate entries in the source; they are usually repeats but may differ in a detail not shown here. Equal entries are not always repeated.

A word on the IC50: it is the concentration that gives 50% inhibition. By AUC(0-t) is commonly meant the area under the concentration-time curve up to a stated or last time point. A high value points to more exposure. What is called Cmax is the highest concentration seen after dosing. What is called Tmax is the time from dosing to the highest level. As usually defined, the half-life is the time needed for the level to fall by half in the phase considered. A low value points to rapid decline.

Human RPA, sequence (P27694 whole entry): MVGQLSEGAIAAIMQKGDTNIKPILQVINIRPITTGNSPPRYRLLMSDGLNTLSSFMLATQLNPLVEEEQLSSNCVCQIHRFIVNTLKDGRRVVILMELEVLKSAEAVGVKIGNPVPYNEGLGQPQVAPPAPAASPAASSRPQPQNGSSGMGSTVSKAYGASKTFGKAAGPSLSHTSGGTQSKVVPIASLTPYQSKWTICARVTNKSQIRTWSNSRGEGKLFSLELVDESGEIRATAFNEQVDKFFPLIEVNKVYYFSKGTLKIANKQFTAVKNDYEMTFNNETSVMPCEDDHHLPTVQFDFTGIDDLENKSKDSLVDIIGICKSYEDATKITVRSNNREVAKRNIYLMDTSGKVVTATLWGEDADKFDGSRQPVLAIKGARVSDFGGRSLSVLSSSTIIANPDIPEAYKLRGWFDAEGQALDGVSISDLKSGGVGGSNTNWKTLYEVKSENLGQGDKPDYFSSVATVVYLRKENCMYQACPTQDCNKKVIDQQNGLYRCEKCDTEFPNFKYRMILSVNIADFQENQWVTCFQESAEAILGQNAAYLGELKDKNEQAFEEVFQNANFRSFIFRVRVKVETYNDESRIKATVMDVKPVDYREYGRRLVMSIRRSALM
Human RPA, sequence (P15927 whole entry partner): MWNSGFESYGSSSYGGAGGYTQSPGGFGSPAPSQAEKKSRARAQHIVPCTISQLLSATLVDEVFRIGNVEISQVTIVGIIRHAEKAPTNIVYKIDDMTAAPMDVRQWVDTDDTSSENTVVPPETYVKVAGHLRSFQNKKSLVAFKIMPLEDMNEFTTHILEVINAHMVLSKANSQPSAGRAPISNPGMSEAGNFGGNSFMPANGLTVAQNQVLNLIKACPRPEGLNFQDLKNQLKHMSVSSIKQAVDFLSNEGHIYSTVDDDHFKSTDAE
Human RPA, sequence (P35244 whole entry partner): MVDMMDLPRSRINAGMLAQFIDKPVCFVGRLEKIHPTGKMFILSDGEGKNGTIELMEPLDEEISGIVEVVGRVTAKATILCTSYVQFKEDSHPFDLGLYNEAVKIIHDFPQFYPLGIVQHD

For the compound `CCOc1ccc2cc(C3CC(c4ccc(Br)cc4)=NN3C(=O)CCC(=O)O)c(Cl)nc2c1` (stereo not drawn) [TDRL-505], the 50% inhibitory concentration (IC50) on Human RPA is 13 µM and 12.9 µM. For the same compound, in the data set on RPA, the “intensity of RPA staining vs vehicle (in words)” value was “decrease in the intensity of RPA staining”. Besides, the “cells with RPA staining intensity >70% of the maximum” value with RPA (vehicle 23%) is recorded as 15%. Also, the “well tolerated dose, IP” value with NOD/SCID mice (ip) was “up to 400 mg/kg”. Besides, the “well tolerated dose, oral” value with NOD/SCID mice (po) is “up to 800 mg/kg”. In the data set with H460 NSCLC cell line, this compound gave an IC50 of 64 µM. In data set [1] (200 mg/Kg IP, Tween80/DMSO), this compound came in with a Cl/F of 8.29 mL/h, a Vdss of 0.11 L, an AUC(0-t) of 577 µg·h/mL and a Cmax of 31700 ng/mL. Further, in data set [1] (200 mg/Kg IP, Tween80/DMSO), the Tmax was determined as 8 h and the half-life was 7.13 h. In data set [1] (setting [3]), the Cl/F came to 202.33 mL/h, the Vdss is listed as 0.88 L, the area under the curve AUC(0-t) came out at 25 µg·h/mL and the Cmax worked out at 6400 ng/mL. In addition, in data set [1] (setting [3]), the Tmax amounted to 1 h and the half-life is 2.62 h. In addition, the “cytotoxic activity in PBMCs (in words)” value in data set [2] is listed as “minimal cytotoxic activity”. Moreover, the “tumor growth in individual mice vs vehicle (in words)” value in the data set on H460 cells (FIG. 7B) is given as “significant reduction in tumor growth”. The “tumor growth vs vehicle control (in words)” value in the data set on H460 cells (group mean, FIG. 7A) is listed as “reduction in tumor growth”.
